Test results reported in publication PMC6566410, “Novel Diamide-Based Benzenesulfonamides as Selective Carbonic Anhydrase IX Inhibitors Endowed with Antitumor Activity: Synthesis, Biological Evaluation and In Silico Insights” (International Journal of Molecular Sciences, 2019).

How the values were obtained:
Assay in all cases: NCI one-dose SRB assay
HL-60(TB) = assay type: cell-based; settings: Homo sapiens, HL-60(TB) (Leukemia), 1.00E-5 Molar, read-out: Growth Percent
Method in brief: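 NCI-60 one-dose protocol: compound at 10^−5 M; growth and viability quantified with SRB dye.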

HOP-92 = assay type: cell-based; settings: Homo sapiens, HOP-92 (Non-Small Cell Lung Cancer), 1.00E-5 Molar, read-out: Growth Percent
Method in brief: (§1)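 Using the US-NCI one-dose format, the sixty cancer cell lines received compound at 10^−5 M, and sulforhodamine B colorimetry was used to assess growth and viability.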

MDA-MB-435 = assay type: cell-based; settings: Homo sapiens, MDA-MB-435 (Melanoma), 1.00E-5 Molar, read-out: Growth Percent
Method in brief: as §1

786-0 = assay type: cell-based; settings: Homo sapiens, 786-0 (Renal Cancer), 1.00E-5 Molar, read-out: Growth Percent
Method in brief: as §1

SK-MEL-5 = assay type: cell-based; settings: Homo sapiens, SK-MEL-5 (Melanoma), 1.00E-5 Molar, read-out: Growth Percent
Method in brief: as §1

A498 = assay type: cell-based; settings: Homo sapiens, A498 (Renal Cancer), 1.00E-5 Molar, read-out: Growth Percent
Method in brief: as §1

HOP-62 = assay type: cell-based; settings: Homo sapiens, HOP-62 (Non-Small Cell Lung Cancer), 1.00E-5 Molar, read-out: Growth Percent
Method in brief: as §1

DU-145 = assay type: cell-based; settings: Homo sapiens, DU-145 (Prostate Cancer), 1.00E-5 Molar, read-out: Growth Percent
Method in brief: as §1

CAKI-1 = assay type: cell-based; settings: Homo sapiens, CAKI-1 (Renal Cancer), 1.00E-5 Molar, read-out: Growth Percent
Method in brief: as §1

SF-268 = assay type: cell-based; settings: Homo sapiens, SF-268 (CNS Cancer), 1.00E-5 Molar, read-out: Growth Percent
Method in brief: as §1

NCI-H522 = assay type: cell-based; settings: Homo sapiens, NCI-H522 (Non-Small Cell Lung Cancer), 1.00E-5 Molar, read-out: Growth Percent
Method in brief: as §1

EKVX = assay type: cell-based; settings: Homo sapiens, EKVX (Non-Small Cell Lung Cancer), 1.00E-5 Molar, read-out: Growth Percent
Method in brief: as §1

SK-OV-3 = assay type: cell-based; settings: Homo sapiens, SK-OV-3 (Ovarian Cancer), 1.00E-5 Molar, read-out: Growth Percent
Method in brief: as §1

NCI/ADR-RES = assay type: cell-based; settings: Homo sapiens, NCI/ADR-RES (Ovarian Cancer), 1.00E-5 Molar, read-out: Growth Percent
Method in brief: as §1

SF-539 = assay type: cell-based; settings: Homo sapiens, SF-539 (CNS Cancer), 1.00E-5 Molar, read-out: Growth Percent
Method in brief: as §1

K-562 = assay type: cell-based; settings: Homo sapiens, K562, K-562 (Leukemia), 1.00E-5 Molar, read-out: Growth Percent
Method in brief: as §1

OVCAR-4 = assay type: cell-based; settings: Homo sapiens, OVCAR-4 (Ovarian Cancer), 1.00E-5 Molar, read-out: Growth Percent
Method in brief: as §1

NCI-H23 = assay type: cell-based; settings: Homo sapiens, NCI-H23 (Non-Small Cell Lung Cancer), 1.00E-5 Molar, read-out: Growth Percent
Method in brief: as §1

NCI-H322M = assay type: cell-based; settings: Homo sapiens, NCI-H322M (Non-Small Cell Lung Cancer), 1.00E-5 Molar, read-out: Growth Percent
Method in brief: as §1

COLO 205 = assay type: cell-based; settings: Homo sapiens, COLO 205 (Colon Cancer), 1.00E-5 Molar, read-out: Growth Percent
Method in brief: as §1

HCT-15 = assay type: cell-based; settings: Homo sapiens, HCT-15 (Colon Cancer), 1.00E-5 Molar, read-out: Growth Percent
Method in brief: as §1

MCF7 = assay type: cell-based; settings: Homo sapiens, MCF7 (Breast Cancer), 1.00E-5 Molar, read-out: Growth Percent
Method in brief: as §1

SNB-75 = assay type: cell-based; settings: Homo sapiens, SNB-75 (CNS Cancer), 1.00E-5 Molar, read-out: Growth Percent
Method in brief: as §1

UACC-257 = assay type: cell-based; settings: Homo sapiens, UACC-257 (Melanoma), 1.00E-5 Molar, read-out: Growth Percent
Method in brief: as §1

SN12C = assay type: cell-based; settings: Homo sapiens, SN12C (Renal Cancer), 1.00E-5 Molar, read-out: Growth Percent
Method in brief: as §1

IGROV1 = assay type: cell-based; settings: Homo sapiens, IGROV-1, IGROV1 (Ovarian Cancer), 1.00E-5 Molar, read-out: Growth Percent
Method in brief: as §1

NCI-H226 = assay type: cell-based; settings: Homo sapiens, NCI-H226 (Non-Small Cell Lung Cancer), 1.00E-5 Molar, read-out: Growth Percent
Method in brief: as §1

OVCAR-5 = assay type: cell-based; settings: Homo sapiens, OVCAR-5 (Ovarian Cancer), 1.00E-5 Molar, read-out: Growth Percent
Method in brief: as §1

OVCAR-8 = assay type: cell-based; settings: Homo sapiens, OVCAR-8 (Ovarian Cancer), 1.00E-5 Molar, read-out: Growth Percent
Method in brief: as §1

RXF 393 = assay type: cell-based; settings: Homo sapiens, RXF 393 (Renal Cancer), 1.00E-5 Molar, read-out: Growth Percent
Method in brief: as §1

SR = assay type: cell-based, human; settings: SR (Leukemia), 1.00E-5 Molar
Method: First, all diamide-based benzenesulfonamides herein reported 5a–h were screened for their antitumor activity at one dose (10^−5 M) assay against a panel of sixty cancer cell lines through the National Cancer Institute (NCI) Developmental Therapeutic Program (www.dtp.nci.nih.gov), according to US-NCI protocol. The cell growth and cell viability were evaluated using the sulforhodamine B (SRB) colorimetric assay.
This assay was carried out according to the protocol of the Drug Evaluation Branch, NCI, Bethesda. The cell growth and cell viability were evaluated using the sulforhodamine B (SRB) colorimetric assay, as reported earlier.

SMILES	activity at 10 µM (HL-60(TB))	activity at 10 µM (HOP-92)	activity at 10 µM (MDA-MB-435)	activity at 10 µM (786-0)	activity at 10 µM (SK-MEL-5)	activity at 10 µM (A498)	activity at 10 µM (HOP-62)	activity at 10 µM (DU-145)	activity at 10 µM (CAKI-1)	activity at 10 µM (SF-268)	activity at 10 µM (NCI-H522)	activity at 10 µM (EKVX)	activity at 10 µM (SK-OV-3)	activity at 10 µM (NCI/ADR-RES)	activity at 10 µM (SF-539)	activity at 10 µM (K-562)	activity at 10 µM (OVCAR-4)	activity at 10 µM (NCI-H23)	activity at 10 µM (NCI-H322M)	activity at 10 µM (COLO 205)	also measured
NS(=O)(=O)c1ccc(NC(=O)C(=Cc2ccc(Cl)cc2Cl)NC(=O)c2ccccc2)cc1 [Compound 5b, N-(1-(2,4-Dichlorophenyl)-3-oxo-3-((4-sulfamoylphenyl)amino)prop-1-en-2-yl)benzamide]	84.8%	87%	97.7%	104%	90.2%	95%	95.7%	109%	88.6%	94.5%	80.3%	99.6%	96.3%	98.2%	95.7%	88.2%	97.7%	107%	102%	110%	activity at 10 µM (HCT-15): 110%; activity at 10 µM (MCF7): 90.1%; activity at 10 µM (SNB-75): 81.4%; activity at 10 µM (UACC-257): 102%; activity at 10 µM (SN12C): 94.7%; activity at 10 µM (IGROV1): 74.9%; activity at 10 µM (NCI-H226): 103%; activity at 10 µM (OVCAR-5): 108%; activity at 10 µM (OVCAR-8): 101%; activity at 10 µM (RXF 393): 96%; Growth Percent (SR): 96.62%
NS(=O)(=O)c1ccc(NC(=O)C(=Cc2ccc(Br)cc2)NC(=O)c2ccccc2)cc1 [Compound 5c, N-(1-(4-Bromophenyl)-3-oxo-3-((4-sulfamoylphenyl)amino)prop-1-en-2-yl)benzamide]	96.9%	94%	95%	96%	93.1%	94.5%	104%	108%	91%	99.6%	87.9%	102%	101%	102%	92.8%	92.8%	93.7%	100%	100%	105%	activity at 10 µM (HCT-15): 92.5%; activity at 10 µM (MCF7): 98.1%; activity at 10 µM (SNB-75): 86.5%; activity at 10 µM (UACC-257): 105%; activity at 10 µM (SN12C): 99.4%; activity at 10 µM (IGROV1): 90.2%; activity at 10 µM (NCI-H226): 97.2%; activity at 10 µM (OVCAR-5): 99.8%; activity at 10 µM (OVCAR-8): 102%; activity at 10 µM (RXF 393): 95.8%; Growth Percent (SR): 88.11%
Cc1ccc(C=C(NC(=O)c2ccccc2)C(=O)Nc2ccc(S(N)(=O)=O)cc2)cc1 [Compound 5d, N-(3-Oxo-3-((4-sulfamoylphenyl)amino)-1-(p-tolyl)prop-1-en-2-yl)benzamide]	88.5%	109%	92.9%	100%	97%	103%	114%	105%	93.9%	106%	89.9%	108%	100%	99.3%	102%	94.6%	90.6%	94.9%	108%	117%	activity at 10 µM (HCT-15): 90.6%; activity at 10 µM (MCF7): 104%; activity at 10 µM (SNB-75): 92.6%; activity at 10 µM (UACC-257): 105%; activity at 10 µM (SN12C): 94.8%; activity at 10 µM (IGROV1): 99.2%; activity at 10 µM (NCI-H226): 105%; activity at 10 µM (OVCAR-5): 103%; activity at 10 µM (OVCAR-8): 98.3%; activity at 10 µM (RXF 393): 116%; Growth Percent (SR): 85.23%
